# According to patent publication US20030027981A1, “Urokinase-type plasminogen activator receptor” (priority 1989, published 2003):
# B1: plasmin: human plasmin (Kabi Diagnostica) (protein, UniProt P00747 20-580; P00747 581-810, looked up)
# Plasmin heavy chain A: EPLDDYVNTQGASLFSVTKKQLGAGSIEECAAKCEEDEEFTCRAFQYHSKEQQCVIMAENRKSSIIIRMRDVVLFEKKVYLSECKTGNGKNYRGTMSKTKNGITCQKWSSTSPHRPRFSPATHPSEGLEENYCRNPDNDPQGPWCYTTDPEKRYDYCDILECEEECMHCSGENYDGKISKTMSGLECQAWDSQSPHAHGYIPSKFPNKNLKKNYCRNPDRELRPWCFTTDPNKRWELCDIPRCTTPPPSSGPTYQCLKGTGENYRGNVAVTVSGHTCQHWSAQTPHTHNRTPENFPCKNLDENYCRNPDGKRAPWCHTTNSQVRWEYCKIPSCDSSPVSTEQLAPTAPPELTPVVQDCYHGDGQSYRGTSSTTTTGKKCQSWSSMTPHRHQKTPENYPNAGLTMNYCRNPDADKGPWCFTTDPSVRWEYCNLKKCSGTEASVVAPPPVVLLPDVETPSEEDCMFGNGKGYRGKRATTVTGTPCQDWAAQEPHRHSIFTPETNPRAGLEKNYCRNPDGDVGGPWCYTTNPRKLYDYCDVPQCAAPSFDCGKPQVEPKKCPGR
# Plasmin light chain B: VVGGCVAHPHSWPWQVSLRTRFGMHFCGGTLISPEWVLTAAHCLEKSPRPSSYKVILGAHQEVNLEPHVQEIEVSRLFLEPTRKDIALLKLSSPAVITDKVIPACLPSPNYVVADRTECFITGWGETQGTFGAGLLKEAQLPVIENKVCNRYEFLNGRVQSTELCAGHLAGGTDSCQGDSGGPLVCFEKDKYILQGVTSWGLGCARPNKPGVYVRVSRFVTWIEGVMRNN
# modifications: plasmin
# Legend:
# u-PAR mRNA [1] = experiment: Northern blot of u-PAR mRNA in U937 cells; assay type: cell-based, human; settings: 150 nM PMA, time course
# Description: The cells were seeded at 0.5×10^6/ml in RPMI 1640 medium containing 10% FCS, and incubated with 150 nM PMA for the indicated number of hours. After the incubation both the adherent and the non-adherent cells were collected, pooled, and total RNA was isolated as described in Materials and Methods. For the Northern blot analyses, 30 μg of total RNA were electrophoresed in 1.5% agarose gels under denaturing conditions and blotted onto a nitrocellulose filter. The filters were hybridized to a random primed labelled u-PAR cDNA probe (A), or a β-actin cDNA probe (B). The positions of the ribosomal RNA in the Northern blot are indicated to the left.
# The human histiocytic lymphoma cell line U937 (American Type Culture Collection (ATCC), CRL 1593) was obtained from Dr. A. Fattorssi (Research Lab. of Aeronautica Militare, Rome, Italy) and cultured in RPMI 1640 medium with 10% heat inactivated fetal calf serum and 2 mM L-glutamine at a density of 0.5×10^6 cells/ml at the onset of the experiment. The medium was supplemented with 100 units/ml of penicillin and 25 ug/ml streptomycin. […]
# (§1) Total cellular RNA was isolated from the cells as described by Chomczynsky and Sacchi (1987). The RNA was analyzed by hybridizing Northern blots as described (Lund et al., 1987), except that random primed labelled plasmid probes were used. […]
# u-PAR mRNA [2] = experiment: Northern blot of u-PAR mRNA in A549 cells; assay type: cell-based, human; settings: 48 hours, PMA 150 nM, mEGF 20 ng/ml, TGF-β1 7.5 ng/ml, dexamethasone 10^−6 M
# Description: (§2) The cells were seeded at 0.5×10^6/ml in DMEM and grown to confluence, washed in PBS^+ and kept under serum-free conditions for 48 hours followed by no additions (1, 6), by addition of Dex (10^−6M) (2, 7) PMA (150 nM) (3, 8) mEGF (20 ng/ml) (4, 9) and TGF-β1, (7.5 ng/ml) (5, 10) for 48 hours. After incubation, both the adherent and the non-adherent cells were collected, pooled, and total RNA was isolated as described in Materials and Methods. For the Northern blot analyses, 30 μg of total RNA were electrophoresed in 1.5% agarose gels under denaturing conditions and blotted onto a nitrocellulose filter. The filters were hybridized to a random primed labeled u-PAR cDNA probe. The positions of the ribosomal RNA in the Northern are indicated to the left.
# (§3) The human histiocytic lymphoma cell line U937 (American Type Culture Collection (ATCC), CRL 1593) was obtained from Dr. A. Fattorssi (Research Lab. of Aeronautica Militare, Rome, Italy) and cultured in RPMI 1640 medium with 10% heat inactivated fetal calf serum and 2 mM L-glutamine at a density of 0.5×10^6 cells/ml at the onset of the experiment. The medium was supplemented with 100 units/ml of penicillin and 25 ug/ml streptomycin. The human rhabdomyosarcoma (RD) and adenocarcinoma (A549) cell lines (ATCC CCL 136 and ATCC CCl 185, respectively) were obtained from Flow laboratories, Irvine, U.K., and kept in Dulbecco's modified Eagle's medium supplemented with 10% fetal calf serum until confluency, as described earlier (Lund et al., 1988). The cell lines were tested for and found free from Mycoplasma infection. PMA and the other compounds were present during different time periods and in varying concentrations, as indicated for each experiment. The adherent cells were released by a rubber policeman, and harvested for RNA analysis as described (Mayer et al., 1988).
# as §1
# u-PAR mRNA [3] = experiment: Northern blot of u-PAR mRNA in RD cells; assay type: cell-based, human; settings: 48 hours, PMA 150 nM, mEGF 20 ng/ml, TGF-β1 7.5 ng/ml, dexamethasone 10^−6 M
# Description: as §2, §3, §1
# u-PAR [4] = experiment: u-PAR protein level in U937 cells by cross-linking of detergent phase to 125I-ATF; assay type: cell-based, human; settings: increasing time of treatment, PMA 150 nM, dibuturyl cAMP 1 mM
# U937 cells = experiment: Fate of receptor-bound ligands on U937 cells (internalization and degradation); assay type: cell-based, human
# uPAR-bound u-PA = uPAR-bound u-PA (Homo sapiens, UniProt P00749); assay type: cell-based; settings: peptide 0.5 mg/ml 30 minutes preincubation; PAI-1 0.9 or 4.5 nM
# Description: U937 cells were grown in suspension in RPMI 1640 medium supplemented with 5% heat-inactivated fetal calf serum. PMA-stimulation of U937 cells was performed at a cell density of […] cells/ml with 150 nM PMA for 4 days. The adherent cell population was harvested with a rubber scraper and resuspended in PBS. […] The effect of PAI's on the activity of cell-bound u-PA was determined by the addition of varying concentrations of PAI-1 (0.18-18.4 nM) or PAI-2 (1.13-56.7 nM) to the incubations at the same time as the addition of plasminogen. Curves were then constructed of plasmin concentration against time. […] [pln]∞ was calculated from the relationship: [[…]]0) equation.2 where Δ[pln]0 is the initial rate of plasmin generation which was determined in control incubations in the absence of inhibitors. […] Association rate constants (second-order rate constants) were calculated from the slope of the line of double reciprocal plots of kapp against inhibitor concentration.
# u-PAR [5] = molecular target: T1, u-PAR (Homo sapiens, UniProt Q03405); experiment: Release of 125I-labelled DFP-u-PA from PMA-stimulated U937 cells by phospholipases; assay type: cell-based; settings: phospholipases >5 μg/ml, compared to blind sample
# u-PAR [6] = molecular target: T1, u-PAR; experiment: Chemical cross-linking of 125I-ATF to purified u-PAR; assay type: binding; settings: unlabelled reagent 100 nM, u-PAR approx. 1 nM, 125I-ATF approx. 1 nM
# Description: B) Affinity column eluate was diluted to yield an approximate concentration of u-PAR of 1 nM during the assay. The samples were preincubated alone (lane 2) or in the presence of the following unlabelled reagents at a concentration of 100 nM: bovine serum albumin (lane 3), t-PA (lane 4), plasminogen (lane 5), murine epidermal growth factor (lane 6), ATF (lane 7), active 54 kD u-PA (lane 8), DFP-inactivated 54 kD u-PA (lane 9). After preincubation for 15 min at room temperature, ^125I-labelled ATF (approximately 1 nM) was added, followed by incubation for 1 hour at 4° C. After incubation, chemical cross-linking was performed with DSS, after which the samples were analyzed by SDS-PACE on a 6-16% gradient gel under non-reducing conditions and autoradiography. […] Electrophoretic mobilities of molecular weight standard proteins are inducated (kD).
# Cross-linking of u-PAR in complex mixtures or purified fractions to ^125I-labelled ATF was performed as described for solubilized receptor (Nielsen et al., 1988), except that 2 mM disuccinimidylsuberate (DSS) was used for cross-linking. Cross-linking of purified u-PAR to DFP-treated u-PA for analysis by SDS-PAGE and silver-staining was performed in the same manner, except that non-labelled DFP-treated u-PA was used as the ligand.
# HT-1080 cells = experiment: Plasmin release from plasmin-loaded HT-1080 cells; assay type: cell-based, human
# Description: FIG. 24. Plasmin release from HT-1080 cells into serum-free and serum-containing media. Confluent layers of HT-1080 cells were first loaded with plasmin by incubation for 1 hour at 37° C. in serum-free MEM medium (0.5 ml) containing human plasmin (0-5 μg/ml). After rinsing the cell layers three times, they were incubated for 2 hours at 37° C. with either serum-free medium (∘ - - - ∘), medium containing 10% heat-inactivated and plasminogen-depleted fetal calf serum (● - - - ●), or the latter with tranexamic acid (100 μM) (▪ - - - ▪). Plasmin was then assayed in the cell-bound fraction (A) and the media (B). At the time of transfer to new media, there was approximately 28 ng of plasmin bound to the cells from the pretreatment with 2.5 μg of plasmin/well.
# In the Examples concerning plasmin binding to cells from medium, human plasmin (approximately 18 CU/mg; Kabi Diagnostica, Stockholm, Sweden) was added to the cultures at final concentrations of 0-5 μg/ml. The cells were incubated for 3 hours at 37° C. before assay of cell-bound and supernatant plasmin (see below). For plasmin release experiments, cells were loaded for 1 hour at 37° C. with 0-5 μg/ml plasmin in serum-free medium, then rinsed three times with MEM.
# Plasmin bound to the cell layer was recovered and assayed as follows. After harvest of culture medium, the cells were rinsed three times with PBS (plasmin assays of further rinses were negative); then the bound plasmin was specifically eluted (Miles, L. A., and E. F. Plow, “Binding and activation of plasminogen on the platelet surface”, J. Biol. Chem. 260: 4303-4311, 1985) with a solution of 1 mM tranexamic acid in the same rinsing solution (150 μl/well). Plasmin activity was assayed in eluate samples (50 μl) as above with an incubation time of 3 hours at 37° C. Tranexamic acid at 1 mM had no effect on the thioesterase activity of plasmin in these assays.
# cultured cells = settings: plasmin, some cell types (Burtin and Fondaneche, 1988); cited from earlier work
molecule,measurement,setting,value
"CCCCCCCCCCCCCC(=O)O[C@@H]1[C@@H](C)[C@@]2(O)[C@@H](C=C(CO)C[C@]3(O)C(=O)C(C)=C[C@@H]23)[C@@H]2C(C)(C)[C@]12OC(C)=O [PMA, Phorbol 12-myristate 13-acetate]",u-PAR mRNA level,u-PAR mRNA [1],maximal effect after 24 hours
same,u-PAR mRNA level,u-PAR mRNA [2],increased
same,u-PAR mRNA level,u-PAR mRNA [3],increased
same,u-PAR protein level (signal of 125I-ATF cross-linked to u-PAR),u-PAR [4],increase in the strength of signal
CCN(CC)CCCC(C)Nc1ccnc2cc(Cl)ccc12 (stereo not shown) [chloroquine],Degradation of u-PA:PAI-1 ligand,U937 cells,20%
Gly-Arg-Gly-Asp-Ser (GRGDS; printed: Gly-Arg-Gly-Asp-Ser),Rates of inhibition of cell-bound u-PA by PAI-1 in the presence or absence of the peptide,uPAR-bound u-PA,the same
TGF-β1: porcine transforming growth factor β-type 1,u-PAR mRNA level,u-PAR mRNA [2],increased
same,u-PAR mRNA level,u-PAR mRNA [3],increased
Trypsin,Liberation of 125I-labelled DFP-u-PA from the cell surface,u-PAR [5],efficiently released all cell surface associated radioactivity
bovine serum albumin: unrelated control protein,Competition for binding and cross-linking of 125I-labelled ATF to purified u-PAR,u-PAR [6],no competition
epidermal growth factor: murine epidermal growth factor,Competition for binding and cross-linking of 125I-labelled ATF to purified u-PAR,u-PAR [6],no competition
same,u-PAR mRNA level,u-PAR mRNA [2],increased
same,u-PAR mRNA level,u-PAR mRNA [3],increased
t-PA: tissue-type plasminogen activator,Competition for binding and cross-linking of 125I-labelled ATF to purified u-PAR,u-PAR [6],no competition
B1,Plasmin activity recovered from the cells,"HT-1080 cells; 2 hours 37° C., 10% serum-containing medium",40%
same,Plasmin activity remaining bound to cells,"HT-1080 cells; 2 hours 37° C., fresh serum-free medium",approximately 40%
same,Plasmin activity detected in the medium,HT-1080 cells; serum-containing medium,about 11%
same,Plasmin activity detected in the medium,HT-1080 cells; serum-free medium,60%
same,Kd,cultured cells,50 nM
